Patent US5688830A, “Treatment of neuropathic pain” (Syntex (U.S.A.) Inc., priority 1997, dated 1997)
Where two headings read alike, the source gives them in different places. Blank lines part the entries; values can stand above or below the compound they belong to.

Legend:
[1] = tested on: mechanical allodynia in rats; assay: Mechanical allodynia in vivo assay (spinal nerve ligation); parameters: species or system rat; settings: for ED50: Rattus norvegicus, sc; for analgesia against mechanical allodynia: oral administration
Procedure: This assay determines the effectiveness of compounds in relieving one of the symptoms of neuropathic pain produced by spinal nerve ligation, namely mechanical allodynia. The surgical procedure was performed essentially as described by Kim and Chung, Pain, (1992) 50:355-363. Briefly, the rats were anesthetized with an intraperitoneal dose of pentobarbital sodium (65 mg/kg) with additional doses of anesthetic given as needed. Each animal was then placed in a prone position, a 3 cm lateral incision was made, and the left paraspinal muscles separated from the spinous process at the L4 -S2 level. The L6 transverse process was then removed in order to visually identify the L4 -L6 spinal nerves. The L5 and L6 spinal nerves were then individually isolated and tightly ligated with silk thread. The wound was then closed in layers by silk sutures. Seven to 28 days post-surgery, a calibrated series of eight von Frey filaments were used to assess mechanical allodynia. Animals were housed individually in plexiglass cages with a wire mesh floor. Filaments of increasing stiffness were applied perpendicular to the midplantar surface in the sciatic nerve distribution areas of the left hindpaw and were slowly depressed (4-6 seconds) until bending occurred. The filament application order and number of trials were determined by the up-down method of Dixon (Chaplan, et al., J. Neurosci. Methods, (1994) 53:55-63). Flinching and licking of the paw and paw withdrawal on the ligated side were all considered positive responses. The 50% paw withdrawal threshold (g) was then calculated and compared to control. The doses for the acute and chronic studies were selected on the basis of prior assessment of the acute effects on the test compounds on the gross behavior in normal rats. Briefly, the rats were weighed and grouped into cages, dosed with the test compound, and observed continuously for changes in behavior. […] Pinna and corneal reflexes were tested by using a piece of natural hair from a brush that is attached to a glass rod. The righting reflexes were tested by placing the rat flat on its back, and recording the time it takes for the animal to right itself onto all four legs. The posture and gait were assessed by placing the rat on the floor.

[2] = Adverse effects / gross behavior on dosing; assay type: in vivo, rat; settings: for doses with adverse side effects / behavioral problems / adverse side effects observed: cold allodynia acute study; for adverse side effects observed: doses higher than 60 mg/kg
Procedure: The doses for the acute and chronic studies were selected on the basis of prior assessment of the acute effects on the test compounds on the gross behavior in normal rats. Briefly, the rats were weighed and grouped into cages, dosed with the test compound, and observed continuously for changes in behavior. […] Pinna and corneal reflexes were tested by using a piece of natural hair from a brush that is attached to a glass rod. The righting reflexes were tested by placing the rat flat on its back, and recording the time it takes for the animal to right itself onto all four legs. The posture and gait were assessed by placing the rat on the floor.
The selection of doses was similar to that of Example 12C.

neuropathic pain models = assay: Neuropathic pain models / standard assays (summary statements); assay type: in vivo; settings: summary statement, (S)- vs (R)-enantiomer
cold allodynia in rats [3] = assay: Cold allodynia in vivo assay (chronic constriction injury), acute studies; parameters: species or system rat; settings: cold allodynia, subcutaneous, acute; for ED50: Rattus norvegicus, sc; for potency (ED50) comparison of (R)-isomers: in words
Procedure: (§1) This assay determines the effectiveness of compounds in relieving one of the symptoms of neuropathic pain produced by unilateral mononeuropathy, namely cold allodynia. Unilateral mononeuropathy was produced in rats using the Chronic Constriction Injury model performed essentially as described by Bennet and Xie, Pain, (1988) 33:87-107. Briefly, the rats were anesthetized with an intraperitoneal dose of pentobarbital sodium (65 mg/kg) with additional doses of anesthetic given as needed. The lateral aspect of each rat's hind limb was shaved and scrubbed with Novasan. Using aseptic technique, an incision was made on the lateral aspect of the hind limb at the mid-thigh level. The biceps femoris was bluntly dissected to expose the sciatic nerve. On the right hind limb of each rat, four loosely tied ligatures were made around the sciatic nerve approximately 1-2 millimeters apart. On the left side of each rat, an identical dissection was performed except that the sciatic nerve was not ligated. The muscle was closed with a continuous suture pattern, and the skin was closed with wound clips. Each rat was placed individually into a plexiglass chamber with a metal plate 6 cm from the bottom. This chamber was filled with ice water to a depth of 2.5 cm above the metal plate, with the temperature of the bath maintained at 0° C. throughout the experiment. A timer was started, and the rat's response latency was measured to the nearest tenth of a second. A "response" was defined as a rapid withdrawal of the right ligated hindpaw completely out of the water while the animal was stationary and not pivoting. An exaggerated limp while the animal was walking was not scored as a response. Maximum immersion time was 20 seconds with a 20 minute interval between trials. The screening criteria were 1) the average of two trials was less than or equal to 13 seconds, and 2) there was consistency across the two trial scores. Animals were screened for hypersensitivity to cold on post-surgery days 4 through 10, and selected for inclusion in dose-response studies based on the criteria described above. The pre-dose screening values were used as the animal's baseline cold allodynia scores. For acute studies, the animals received either subcutaneous or oral injections and were tested for cold allodynia at 1, 3, and sometimes 5 hours post-dose. The selection of doses was similar to that of Example 12C.

[4] = tested on: voltage-gated sodium channels ([3H]BTX binding, rat cortex); assay: [3H]BTX binding assay, rat cortex membranes; settings: rat brain cortex membranes
Procedure: The following assays characterize the interaction of the compounds of Formula I with ligand binding sites on voltage-gated sodium channels.
Frozen tissues were obtained from Pel-Freez Biologicals (Rogers, AR). Tissues were homogenized in 10 volumes of a Tris-sucrose buffer (10 mM Tris-HCl, 250 mM sucrose, pH 7.4 at 4° C.) using 10 strokes with a glass-glass, hand-held homogenizer. The homogenates were filtered through nylon mesh and then centrifuged at 1,000×g for 15 minutes. The pellets were resuspended in a Hepes buffer (50 mM Hepes, 130 mM choline chloride, 5 mM glucose, 5.4 mM KCl, pH 7.4 at 4° C.). The resuspended pellets were centrifuged at 1,000×g for 15 minutes, resuspended in a Hepes buffer (50 mM Hepes, 130 mM choline chloride, 5 mM glucose, 5.4 mM KCl, pH 7.4 at 25° C.) and, frozen at -70° C. until used in binding assays.
Nonspecific binding was defined in the presence of 1 mM veratridine. Unless otherwise specified, PbTx (0.1 μM) and LqTx (50 μg/ml) were included in the assays. Membranes were incubated for 60 minutes at 25° C. and then filtered using GF/B glass fiber filters that had been pretreated with 0.3% PEI. Filters were rinsed with 3×1 ml of ice cold 50 mM Tris-HCl (pH 7.4 at 4° C.) and the bound radioactivity was determined by scintillation counting (Packard Top-count).

cold allodynia in rats [5] = assay: Cold allodynia in vivo assay (chronic constriction injury), chronic studies; parameters: species or system rat; settings: oral, chronic; (R)-enantiomer 10 and 20 mg/kg, sub-threshold
Procedure: as §1, with “chronic” for “acute”, “animals received subcutaneous or oral injections twice daily for 4 days and once on day 5. The animals were tested for allodynia on day 1 at 1, 3 and 5 hours following the 8 am dose, and at 5 hours following the 8 am dose on days 3 and 5. Two days later, the animals were tested for cold allodynia to assess whether there was a wash-out of the drug being tested. Following this screening for cold allodynia, the animals in two of the three chronic studies” for “animals”, “of the drug” for “and were tested for cold allodynia”, “a dose previously shown” for “1, 3, and sometimes 5 hours post-dose. The selection of doses was similar”, “produce significant anti-allodynic effects acutely. […]” for “that of Example 12C.”

[6] = mechanical allodynia, subcutaneous
[7] = subcutaneous, mechanical allodynia study

SMILES: CCCNC(C)COc1c(C)cccc1C (racemic) [Formula IV racemate, [2-(2,6-Dimethylphenoxy)-1-methylethyl]-propylamine, reference compound]
- ED50 [1, 6]: > 30 mg/kg
- potency (ED50) comparison ([1]; mechanical allodynia, subcutaneous, in words): less potent than compound III
- adverse events [2, 7]: adverse events
- dose at which adverse events occur [2, 7]: 60 mg/kg
- adverse events ([2]; subcutaneous, mechanical allodynia study, listed as Compound IV): convulsions and severe ataxia

SMILES: CNC(C)COc1c(C)cccc1C (racemic) [Formula III racemate, [2-(2,6-dimethylphenoxy)-1-methylethyl]-methylamine]
- ED50 [1, 6]: 31.3 mg/kg
- EDmax [1, 6]: 67%
- maximal analgesic activity (Emax) [1, 6]: 67%

- potency of (R)- versus (S)-enantiomer in inhibiting [3H]BTX binding [4]: no difference in the potencies
SMILES: CCN[C@@H](C)COc1c(C)cccc1C [Formula I (S)-, (S)-[2-(2,6-dimethylphenoxy)-1-methylethyl]-ethylamine]
- deleterious side effects (neuropathic pain models): deleterious side effects are largely confined to the (S)-enantiomer
- analgesia against mechanical allodynia [1]: did not produce analgesia
- ED50 (cold allodynia in rats [3]; 1 hr, read-out: ED50 1 hr): 12.8 mg/kg
- ED50 (cold allodynia in rats [3]; 3 hr, read-out: ED50 3 hr): 10 mg/kg
- Emax 1 hr (cold allodynia in rats [3]; 1 hr): 100%
- Emax 3 hr (cold allodynia in rats [3]; 3 hr): 58%
- doses with adverse side effects ([2]; oral administration, mechanical allodynia study): greater than 60 mg/kg
- doses with adverse side effects / behavioral problems ([2]; subcutaneous): higher than 60 mg/kg
- adverse side effects observed ([2]; subcutaneous): convulsions and immobility

SMILES: CN[C@H](C)COc1c(C)cccc1C [Formula III (R)-, [2-(2,6-dimethylphenoxy)-1-methylethyl]-methylamine, reference compound]
- ED50 (cold allodynia in rats [3]; 1 hr, read-out: ED50 1 hr): 26.1 mg/kg
- ED50 (cold allodynia in rats [3]; 3 hr, read-out: ED50 3 hr): 31.4 mg/kg
- Emax 1 hr (cold allodynia in rats [3]; 1 hr): 76%
- Emax 3 hr (cold allodynia in rats [3]; 3 hr): 74%
- potency (ED50) comparison of (R)-isomers (cold allodynia in rats [3]): comparable potency

SMILES: Cc1cccc(C)c1OCC(C)N (racemic) [Formula II racemate, 2-(2,6-Dimethylphenoxy)-1-methyl-ethylamine, reference compound]
- EDmax [1, 6]: 29%
- maximal analgesic activity (Emax) [1, 6]: 29%
- analgesia against mechanical allodynia [1]: did not produce analgesia
- ED50 (cold allodynia in rats [3]; 1 hr, read-out: ED50 1 hr): 29.8 mg/kg
- ED50 (cold allodynia in rats [3]; 3 hr, read-out: ED50 3 hr): 33.6 mg/kg
- Emax 1 hr (cold allodynia in rats [3]; 1 hr): 73%
- Emax 3 hr (cold allodynia in rats [3]; 3 hr): 80%
- anti-allodynic effect after chronic oral dosing (cold allodynia in rats [5]): no anti-allodynic effect

SMILES: CCCN[C@H](C)COc1c(C)cccc1C [Formula IV (R)-, [2-(2,6-Dimethylphenoxy)-1-methylethyl]-propylamine, reference compound]
- ED50 (cold allodynia in rats [3]; 1 hr, read-out: ED50 1 hr): 28.4 mg/kg
- ED50 (cold allodynia in rats [3]; 3 hr, read-out: ED50 3 hr): 29.9 mg/kg
- Emax 1 hr (cold allodynia in rats [3]; 1 hr): 74%
- Emax 3 hr (cold allodynia in rats [3]; 3 hr): 74%
- potency (ED50) comparison of (R)-isomers (cold allodynia in rats [3]): comparable potency
- doses with adverse side effects / behavioral problems ([2]; subcutaneous): higher than 60 mg/kg
- adverse side effects observed ([2]; subcutaneous): splayed limbs and abnormal righting reflexes
